# Assay results: patent US12544391B2, “CD73 inhibitors” (ORIC Pharmaceuticals, Inc., priority 2019, dated 2026)
# Target: T1, CD73 (Homo sapiens, UniProt P21589)
# T1 sequence (P21589 27-549): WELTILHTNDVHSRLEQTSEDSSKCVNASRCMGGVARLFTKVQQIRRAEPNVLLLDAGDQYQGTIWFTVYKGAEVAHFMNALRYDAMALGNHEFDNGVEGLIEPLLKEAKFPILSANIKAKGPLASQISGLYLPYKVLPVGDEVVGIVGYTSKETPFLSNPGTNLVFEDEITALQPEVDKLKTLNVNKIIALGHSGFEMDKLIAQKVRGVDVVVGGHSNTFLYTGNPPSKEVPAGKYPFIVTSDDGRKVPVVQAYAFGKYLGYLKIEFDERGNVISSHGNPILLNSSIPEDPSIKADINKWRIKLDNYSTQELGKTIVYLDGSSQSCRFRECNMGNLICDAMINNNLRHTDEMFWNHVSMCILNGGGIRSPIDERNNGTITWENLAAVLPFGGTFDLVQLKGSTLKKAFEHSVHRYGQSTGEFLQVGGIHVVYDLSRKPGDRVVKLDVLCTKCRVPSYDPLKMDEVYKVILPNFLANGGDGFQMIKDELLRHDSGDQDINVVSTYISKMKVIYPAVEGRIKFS
# Assay: CD73 biochemical assay, Malachite Green detection of AMP hydrolysis
# Conditions: CD73 320 pM, AMP 15 μM, Malachite Green readout
# Procedure: Assay Reaction Conditions
# • Assay Volume: 70 μl • Reaction Volume: 50 μl • CD73: 0.3208 nM • AMP: 15 μM • Assay Buffer: 2 5 mM Tris-HCL, pH 7.4, 0.01% Brij-35, 0.01% BSA, 5 mM MgCl2 Assay Procedure:
# A clear 384 well plate was used in this assay.
# Made dose titration of testing compounds in assay buffer, 10 points ½ log titrations in duplicates starting at 100 μM. Total volume for each well was 25 μl, with CD73 then added to each well for a final concentration of 320 pM. The solution was then incubated at RT for 15 min. 25 μl of AMP was added to each well for a final concentration of 15 μM, and then incubated at rt for 10 min. 10 μl of Malachite Green Reagent A was then added and allowed to incubate at rt for 10 min. 10 μl of Malachite Green Reagent B was then added and allowed to incubate at rt for 45 min. The absorbance for each sample was read on an Envision plate reader using excitation filter: Cy5 […].
# The ability of the compounds disclosed herein to inhibit CD73 activity was quantified and the respective IC50 values were determined. Table 2 provides the biochemical IC50 values of compounds disclosed herein.
row,SMILES,IC50 [nM]
1,"COC[C@](Cc1nn[nH]n1)(OC[C@H]1O[C@@H](c2ccc3c(NC4CCCC4)nc(Cl)nn23)[C@H](O)[C@@H]1O)P(=O)(O)O (single isomer, unassigned) [Example 3]",≤ 0.5
2,"O=P(O)(O)[C@](CO)(Cc1nn[nH]n1)OC[C@H]1O[C@@H](c2ccc3c(NC4CCCC4)nc(Cl)nn23)[C@H](O)[C@@H]1O [Example 2, ((S)-2-(((2R,3S,4R,5S)-5-(2-Chloro-4-(cyclopentylamino)pyrrolo[2,1-f][1,2,4]triazin-7-yl)-3,4-dihydroxytetrahydrofuran-2-yl)methoxy)-1-hydroxy-3-(2H-tetrazol-5-yl)propan-2-yl)phosphonic acid]",1 to 100
3,"COC[C@@](Cc1nn[nH]n1)(OC[C@H]1O[C@@H](c2ccc3c(NC4CCCC4)nc(Cl)nn23)[C@H](O)[C@@H]1O)P(=O)(O)O [Example 4, ((S)-2-(((2R,3S,4R,5S)-5-(2-Chloro-4-(cyclopentylamino)pyrrolo[2,1-f][1,2,4]triazin-7-yl)-3,4-dihydroxytetrahydrofuran-2-yl)methoxy)-1-methoxy-3-(2H-tetrazol-5-yl)propan-2-yl)phosphonic acid]",1 to 100
4,"COC[C@](CO)(OC[C@H]1O[C@@H](c2ccc3c(NC4CCCC4)nc(Cl)nn23)[C@H](O)[C@@H]1O)P(=O)(O)O [Example 6, ((R)-2-(((2R,3S,4R,5S)-5-(2-Chloro-4-(cyclopentylamino)pyrrolo[2,1-f][1,2,4]triazin-7-yl)-3,4-dihydroxytetrahydrofuran-2-yl)methoxy)-1-hydroxy-3-methoxypropan-2-yl)phosphonic acid]",≤ 0.5
5,"COC[C@@](CO)(OC[C@H]1O[C@@H](c2ccc3c(NC4CCCC4)nc(Cl)nn23)[C@H](O)[C@@H]1O)P(=O)(O)O [Example 7, ((S)-2-(((2R,3S,4R,5S)-5-(2-chloro-4-(cyclopentylamino)pyrrolo[2,1-f][1,2,4]triazin-7-yl)-3,4-dihydroxytetrahydrofuran-2-yl)methoxy)-1-hydroxy-3-methoxypropan-2-yl)phosphonic acid]",1 to 100
6,"COC[C@@](COCc1nn[nH]n1)(OC[C@H]1O[C@@H](c2ccc3c(NC4CCCC4)nc(Cl)nn23)[C@H](O)[C@@H]1O)P(=O)(O)O [Example 10, ((R)-1-((2H-tetrazol-5-yl)methoxy)-2-(((2R,3S,4R,5S)-5-(2-chloro-4-(cyclopentylamino)pyrrolo[2,1-f][1,2,4]triazin-7-yl)-3,4-dihydroxytetrahydrofuran-2-yl)methoxy)-3-methoxypropan-2-yl)phosphonic acid]",1 to 100
7,"O=P(O)(O)C(CO)(CO)OC[C@H]1O[C@@H](c2ccc3c(NC4CCCC4)nc(Cl)nn23)[C@H](O)[C@@H]1O [Example 11, (2-(((2R,3S,4R,5S)-5-(2-chloro-4-(cyclopentylamino)pyrrolo[2,1-f][1,2,4]triazin-7-yl)-3,4-dihydroxytetrahydrofuran-2-yl)methoxy)-1,3-dihydroxypropan-2-yl)phosphonic acid]",0.5 to 1
8,"O=P(O)(O)C(CO)OC[C@H]1O[C@@H](c2ccc3c(NC4CCCC4)nc(Cl)nn23)[C@H](O)[C@@H]1O (stereo partly drawn) [Example 13, (1-(((2R,3S,4R,5S)-5-(2-chloro-4-(cyclopentylamino)pyrrolo[2,1-f][1,2,4]triazin-7-yl)-3,4-dihydroxytetrahydrofuran-2-yl)methoxy)-2-hydroxyethyl)phosphonic acid]",1 to 100
9,"COCC(OC[C@H]1O[C@@H](c2ccc3c(NC4CCCC4)nc(Cl)nn23)[C@H](O)[C@@H]1O)P(=O)(O)O (stereo partly drawn) [Example 14, (1-(((2R,3S,4R,5S)-5-(2-chloro-4-(cyclopentylamino)pyrrolo[2,1-f][1,2,4]triazin-7-yl)-3,4-dihydroxytetrahydrofuran-2-yl)methoxy)-2-methoxyethyl)phosphonic acid]",0.5 to 1
10,"O=P(O)(O)C(CO)(CO)OC[C@H]1O[C@@H](c2cnn3c(NC4CCCC4)cc(Cl)nc23)[C@H](O)[C@@H]1O [Example 17, (2-(((2R,3S,4R,5S)-5-(5-Chloro-7-(cyclopentylamino)pyrazolo[1,5-a]pyrimidin-3-yl)-3,4-dihydroxytetrahydrofuran-2-yl)methoxy)-1,3-dihydroxypropan-2-yl)phosphonic acid]",0.5 to 1
11,"O=P(O)(O)C(CO)(CO)OC[C@H]1O[C@H](c2cnn3c(NC4CCCC4)cc(Cl)nc23)[C@H](O)[C@@H]1O [Example 18, (2-(((2R,3S,4R,5R)-5-(5-Chloro-7-(cyclopentylamino)pyrazolo[1,5-a]pyrimidin-3-yl)-3,4-dihydroxytetrahydrofuran-2-yl)methoxy)-1,3-dihydroxypropan-2-yl)phosphonic acid]",1 to 100
12,"COCC(C)(OC[C@H]1O[C@@H](c2ccc3c(NC4CCCC4)nc(Cl)nn23)[C@H](O)[C@@H]1O)P(=O)(O)O (stereo partly drawn) [Example 22, (2-(((2R,3S,4R,5S)-5-(2-chloro-4-(cyclopentylamino)pyrrolo[2,1-f][1,2,4]triazin-7-yl)-3,4-dihydroxytetrahydrofuran-2-yl)methoxy)-1-methoxypropan-2-yl)phosphonic acid]",≤ 0.5
13,"O=C(O)COCC(CO)(OC[C@H]1O[C@@H](c2ccc3c(NC4CCCC4)nc(Cl)nn23)[C@H](O)[C@@H]1O)P(=O)(O)O (stereo partly drawn) [Example 23, 2-(2-(((2R,3S,4R,5S)-5-(2-chloro-4-(cyclopentylamino)pyrrolo[2,1-f][1,2,4]triazin-7-yl)-3,4-dihydroxytetrahydrofuran-2-yl)methoxy)-3-hydroxy-2-phosphonopropoxy)acetic acid]",0.5 to 1

# Other lines, results leading:
row,IC50 [nM],SMILES
1,≤ 0.5,"O=P(O)(O)[C@@](CO)(Cc1nn[nH]n1)OC[C@H]1O[C@@H](c2ccc3c(NC4CCCC4)nc(Cl)nn23)[C@H](O)[C@@H]1O [Example 1, ((R)-2-(((2R,3S,4R,5S)-5-(2-Chloro-4-(cyclopentylamino)pyrrolo[2,1-f][1,2,4]triazin-7-yl)-3,4-dihydroxytetrahydrofuran-2-yl)methoxy)-1-hydroxy-3-(2H-tetrazol-5-yl)propan-2-yl)phosphonic acid]"
2,0.5 to 1,"COCC(OC[C@H]1O[C@@H](c2ccc3c(NC4CCCC4)nc(Cl)nn23)[C@H](O)[C@@H]1O)(C(=O)O)P(=O)(O)O (stereo partly drawn) [Example 8, 2-(((2R,3S,4R,5S)-5-(2-Chloro-4-(cyclopentylamino)pyrrolo[2,1-f][1,2,4]triazin-7-yl)-3,4-dihydroxytetrahydrofuran-2-yl)methoxy)-3-methoxy-2-phosphonopropanoic acid]"
3,0.5 to 1,"O=P(O)(O)[C@](CO)(COCc1nn[nH]n1)OC[C@H]1O[C@@H](c2ccc3c(NC4CCCC4)nc(Cl)nn23)[C@H](O)[C@@H]1O [Example 16, ((R)-1-((2H-tetrazol-5-yl)methoxy)-2-(((2R,3S,4R,5S)-5-(2-chloro-4-(cyclopentylamino)pyrrolo[2,1-f][1,2,4]triazin-7-yl)-3,4-dihydroxytetrahydrofuran-2-yl)methoxy)-3-hydroxypropan-2-yl)phosphonic acid]"
4,1 to 100,"CC(CO)(OC[C@H]1O[C@@H](c2ccc3c(NC4CCCC4)nc(Cl)nn23)[C@H](O)[C@@H]1O)P(=O)(O)O (stereo partly drawn) [Example 19, (2-(((2R,3S,4R,5S)-5-(2-chloro-4-(cyclopentylamino)pyrrolo[2,1-f][1,2,4]triazin-7-yl)-3,4-dihydroxytetrahydrofuran-2-yl)methoxy)-1-hydroxypropan-2-yl)phosphonic acid]"
5,≤ 0.5,"O=P(O)(O)C(CO)(COCc1nn[nH]n1)OC[C@H]1O[C@@H](c2ccc3c(NC4CCCC4)nc(Cl)nn23)[C@H](O)[C@@H]1O (stereo partly drawn) [Example 20, (1-((2H-tetrazol-5-yl)methoxy)-2-(((2R,3S,4R,5S)-5-(2-chloro-4-(cyclopentylamino)pyrrolo[2,1-f][1,2,4]triazin-7-yl)-3,4-dihydroxytetrahydrofuran-2-yl)methoxy)-3-hydroxypropan-2-yl)phosphonic acid]"
6,0.5 to 1,O=P(O)(O)C(CO)(Cc1nn[nH]n1)OC[C@H]1O[C@@H](c2ccc3c(NC4CCCC4)nc(CO)nn23)[C@H](O)[C@@H]1O (some centres unmarked) [Example 21]
7,1 to 100,"CCOC(=O)COCC(CO)(OC[C@H]1O[C@@H](c2ccc3c(NC4CCCC4)nc(Cl)nn23)[C@H](O)[C@@H]1O)P(=O)(O)O (stereo partly drawn) [Example 24, (2-(((2R,3S,4R,5S)-5-(2-chloro-4-(cyclopentylamino)pyrrolo[2,1-f][1,2,4]triazin-7-yl)-3,4-dihydroxytetrahydrofuran-2-yl)methoxy)-1-(2-ethoxy-2-oxoethoxy)-3-hydroxypropan-2-yl)phosphonic acid]"
